Measured values: BindingDB's records for doi:10.1016/j.bioorg.2015.05.007 (Silesian University of Technology, 2015)

Biological target: T1, Chitin synthase 3 (Saccharomyces cerevisiae (strain ATCC 204508 / S288c), UniProt P29465)
T1 sequence (P29465 whole entry): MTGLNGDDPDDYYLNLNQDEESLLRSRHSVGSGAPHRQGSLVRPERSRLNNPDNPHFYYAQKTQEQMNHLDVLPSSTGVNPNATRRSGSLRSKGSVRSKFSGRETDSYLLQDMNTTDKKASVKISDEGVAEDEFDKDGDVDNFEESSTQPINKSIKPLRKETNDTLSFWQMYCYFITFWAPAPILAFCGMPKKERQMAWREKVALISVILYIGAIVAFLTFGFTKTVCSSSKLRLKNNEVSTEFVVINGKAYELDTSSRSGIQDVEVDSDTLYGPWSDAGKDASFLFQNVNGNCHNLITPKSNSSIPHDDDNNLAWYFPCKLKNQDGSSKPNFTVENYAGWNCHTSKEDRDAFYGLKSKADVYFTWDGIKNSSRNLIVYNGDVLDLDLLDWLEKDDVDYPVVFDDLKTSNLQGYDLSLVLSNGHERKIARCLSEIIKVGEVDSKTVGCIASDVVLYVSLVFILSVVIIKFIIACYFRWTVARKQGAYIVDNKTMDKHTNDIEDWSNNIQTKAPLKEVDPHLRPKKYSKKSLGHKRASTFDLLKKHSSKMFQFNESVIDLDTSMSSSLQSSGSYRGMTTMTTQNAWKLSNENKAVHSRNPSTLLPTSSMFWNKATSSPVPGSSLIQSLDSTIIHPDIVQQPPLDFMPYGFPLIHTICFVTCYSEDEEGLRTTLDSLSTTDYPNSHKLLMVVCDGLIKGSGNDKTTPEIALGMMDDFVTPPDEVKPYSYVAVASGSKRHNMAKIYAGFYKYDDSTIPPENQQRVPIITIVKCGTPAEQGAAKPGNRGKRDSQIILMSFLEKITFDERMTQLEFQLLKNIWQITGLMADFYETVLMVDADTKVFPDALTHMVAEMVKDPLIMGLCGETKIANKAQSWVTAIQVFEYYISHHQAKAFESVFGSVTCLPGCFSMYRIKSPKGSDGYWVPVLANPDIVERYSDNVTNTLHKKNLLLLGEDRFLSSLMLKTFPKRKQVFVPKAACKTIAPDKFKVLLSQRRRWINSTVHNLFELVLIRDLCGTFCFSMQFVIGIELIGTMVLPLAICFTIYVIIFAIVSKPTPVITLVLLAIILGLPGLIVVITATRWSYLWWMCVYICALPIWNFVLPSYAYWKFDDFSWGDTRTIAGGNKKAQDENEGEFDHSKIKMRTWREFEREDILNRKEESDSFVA
Experiment: Chitin Synthase Assays
Conditions: pH 7.5; 25 °C
Experimental: Assays were performed in 96-wells microtiter plate with flat bottom. To each well of the plate, 100 µL of WGA solution was added at 50 µg/mL. After incubation at room temperature for at least 16 h the WGA solution was removed by triple washing with distill water. Wells were then blocked by adding 300 µL of BSA blocking buffer (20 mg/mL, 50 mM Tris-HCl, pH 7.5) and incubated for 3 h at room temperature. Microtiter plates were stored until use at -20 °C in blocking buffer. Before usage plates were thawed at 25 °C and thoroughly emptied. The standard reaction mixture in total volume 100 µL contains: UDP-GlcNAc (2.0 mM), GlcNAc (40 mM), MgCl2 (5.0 mM) and digitonin (0.1% w/v) dissolved in pH 7.5 Tris-HCl buffer (50 mM) containing test compounds at a range of concentrations from 0 mM (control) to 3.0 mM. The enzymatic reactions were started by the addition of 0.2 mg/mL solution of trypsin (1-10 µL) and membrane preparation (5-20 µL). Usually four different concentrations of trypsin were te

Row | IC50 [mM] | SMILES
1 | 3 | O=C(CCC(=O)NCC(=O)NC[C@H]1O[C@@H](n2ccc(=O)[nH]c2=O)[C@@H](O)C1O)NCC(=O)NC[C@H]1O[C@@H](n2ccc(=O)[nH]c2=O)[C@@H](O)C1O (some centres not stated) [Dimer 15 (15)]
2 | 0.8 | COC(=O)CCC(=O)NC[C@H]1O[C@@H](n2ccc(=O)[nH]c2=O)[C@@H](O)C1O (some centres not stated) [5'-(N-succinyl)-5'-amino-5'-deoxyuridine methyl ester (7)]
